Results: patent US8178506B2, “Oligomeric compounds and compositions for use in modulation of small non-coding RNAs” (Regulus Therapeutics Inc., priority 2003, dated 2012)
In the oligonucleotide strings, read from the 5' end, every base follows the letter of its sugar. An asterisk marks phosphorothioate; unmarked linkages are phosphodiester. Other units and linkages are bracketed, terminal groups are in braces. A string of capitals states the bases alone. e = 2'-O-(2-methoxyethyl) (MOE); [5mC] = 5-methylcytosine; d = 2'-deoxy (DNA)

Experiments:
Format in all cases: cell-based, human
adipocytes = assay: Triglyceride accumulation assay in adipocytes
aP2 = aP2 mRNA expression in adipocytes (real-time PCR); details: for aP2 mRNA: Table 75
HSL = HSL mRNA expression in adipocytes (real-time PCR)
Glut4 = Glut4 mRNA expression in adipocytes (real-time PCR)
PPARγ = PPARγ mRNA expression in adipocytes (real-time PCR)
[1] = Table 17, differentiating adipocytes, control = treatment with ISIS 342673
[2] = differentiating adipocytes transfected with oligomeric compound
[3] = differentiating adipocytes transfected with oligomeric compound, Table 75
[4] = Table 18, differentiating adipocytes, control = treatment with ISIS 342673
[5] = 300 nM, differentiating adipocytes day 10 post-induction, 24 hours after treatment

Row | Substance | TG (triglyceride accumulation) (adipocytes; [3]) | aP2 mRNA (aP2; [2]) | HSL mRNA (HSL; [3]) | GLUT4 mRNA (Glut4; [3]) | PPAR gamma mRNA (PPARγ; [3]) | TG (triglyceride accumulation) (adipocytes; [4]) | AP2 mRNA (aP2; [4]) | HSL mRNA (HSL; [4]) | GLUT4 mRNA (Glut4; [4]) | PPAR gamma mRNA (PPARγ; [4]) | other results
1 | 328132 (antisense eG*eT*eG*eA*eG*eA*eG*eT*eA*eG*e[5mC]*eA*eT*eG*eT*eT*eT*eG*eT*e[5mC]*eT) [compound 328132] | – | – | – | – | – | – | – | – | – | – | TG (triglyceride accumulation) (adipocytes; [1]): 114.1 percentage of control; TG (triglyceride accumulation) (adipocytes; [2]): 120 percentage of untreated control (UTC); AP2 mRNA (aP2; [1]): 90.2 percentage of control; AP2 mRNA (aP2; [2]): 81 percentage of untreated control (UTC); HSL mRNA (HSL; [1]): 73.7 percentage of control; HSL mRNA (HSL; [2]): 89 percentage of untreated control (UTC); GLUT4 mRNA (Glut4; [1]): 72.1 percentage of control; GLUT4 mRNA (Glut4; [2]): 67 percentage of untreated control (UTC); PPAR gamma mRNA (PPARγ; [1]): 90.0 percentage of control; PPAR gamma mRNA (PPARγ; [2]): 94 percentage of untreated control (UTC)
2 | 348117 (GAACCCACAAUCCCUGGCUUA; all 2'-MOE, all phosphorothioate, methylation of C and T or U not given here) [compound 348117] | 66 percentage of untreated control (UTC) | 70 percentage of untreated control (UTC) | 55 percentage of untreated control (UTC) | 73 percentage of untreated control (UTC) | 65 percentage of untreated control (UTC) | – | – | – | – | – | –
3 | 327969 (antisense eT*eG*eT*eG*eA*eG*eT*eT*e[5mC]*eT*eA*e[5mC]*e[5mC]*eA*eT*eT*eG*e[5mC]*e[5mC]*eA*eA*eA) [compound 327969] | 34 percentage of untreated control (UTC) | 44 percentage of untreated control (UTC) | 45 percentage of untreated control (UTC) | 36 percentage of untreated control (UTC) | 67 percentage of untreated control (UTC) | 46.0 percentage of control | 59.8 percentage of control | 66.4 percentage of control | 60.6 percentage of control | 69.2 percentage of control | –
4 | 105990 (antisense AGCAAAAGATCAATCCGTTA; sugars from the 5' end e5 d10 e5, backbone and methylation of C not given here) [compound 105990] | – | – | – | – | – | 32.8 percentage of control | 49.8 percentage of control | 52.0 percentage of control | 68.1 percentage of control | 60.1 percentage of control | Triglycerides (adipocytes; [5]): 16.6 % UTC; TG (triglyceride accumulation) (adipocytes; [1]): 28.2 percentage of control; AP2 mRNA (aP2; [5]): 17.9 % UTC; AP2 mRNA (aP2; [1]): 51.6 percentage of control; HSL mRNA (HSL; [5]): 7.4 % UTC; HSL mRNA (HSL; [1]): 49.2 percentage of control; GLUT4 mRNA (Glut4; [5]): 11.8 % UTC; GLUT4 mRNA (Glut4; [1]): 59.5 percentage of control; PPAR-gamma mRNA (PPARγ; [5]): 43.9 % UTC; PPAR gamma mRNA (PPARγ; [1]): 51.8 percentage of control
5 | 341791 (antisense GCUUCCAGUCGAGGAUGUUUACA; all 2'-MOE, all phosphorothioate, methylation of C and T or U not given here) [compound 341791] | 50 percentage of untreated control (UTC) | 80 percentage of untreated control (UTC) | 72 percentage of untreated control (UTC) | 47 percentage of untreated control (UTC) | 75 percentage of untreated control (UTC) | – | – | – | – | – | –
6 | 328099 (antisense eA*eA*eG*eA*eA*e[5mC]*eA*eT*eT*eA*eA*eG*e[5mC]*eA*eT*e[5mC]*eT*eG*eA*e[5mC]*eA) [compound 328099] | 57 percentage of untreated control (UTC) | 80 percentage of untreated control (UTC) | 74 percentage of untreated control (UTC) | 61 percentage of untreated control (UTC) | 72 percentage of untreated control (UTC) | 93.9 percentage of control | 85.9 percentage of control | 88.4 percentage of control | 86.8 percentage of control | 81.9 percentage of control | –
7 | 328108 (antisense eA*eA*eA*e[5mC]*eT*eT*eG*eT*eT*eA*eA*eT*eT*eG*eA*e[5mC]*eT*eG*eT*e[5mC]*eA) [compound 328108] | 79 percentage of untreated control (UTC) | 87 percentage of untreated control (UTC) | 75 percentage of untreated control (UTC) | 65 percentage of untreated control (UTC) | 72 percentage of untreated control (UTC) | 89.6 percentage of control | 83.7 percentage of control | 90.1 percentage of control | 94.9 percentage of control | 84.0 percentage of control | –
8 | 328104 (antisense eT*eA*eT*eG*eA*eT*eA*eG*e[5mC]*eT*eT*e[5mC]*e[5mC]*e[5mC]*e[5mC]*eA*eT*eG*eT*eA*eA) [compound 328104] | 64 percentage of untreated control (UTC) | 94 percentage of untreated control (UTC) | 81 percentage of untreated control (UTC) | 83 percentage of untreated control (UTC) | 73 percentage of untreated control (UTC) | 122.6 percentage of control | 102.2 percentage of control | 98.2 percentage of control | 119.1 percentage of control | 90.4 percentage of control | –
9 | 346689 (CAUCAUUACCAGGCAGUAUUAGAG; all 2'-MOE, all phosphorothioate, methylation of C and T or U not given here) [compound 346689] | 59 percentage of untreated control (UTC) | 79 percentage of untreated control (UTC) | 63 percentage of untreated control (UTC) | 45 percentage of untreated control (UTC) | 64 percentage of untreated control (UTC) | – | – | – | – | – | –
10 | 348124 (CACAAAUUCGGUUCUACAGGGUA; anti-miR; all 2'-MOE, all phosphorothioate, methylation of C and T or U not given here) [compound 348124] | 53 percentage of untreated control (UTC) | 59 percentage of untreated control (UTC) | 43 percentage of untreated control (UTC) | 41 percentage of untreated control (UTC) | 63 percentage of untreated control (UTC) | – | – | – | – | – | –
11 | 340343 (antisense ACAGGAGUCUGAGCAUUUGA; all 2'-MOE, all phosphorothioate, methylation of C and T or U not given here) [compound 340343] | 35 percentage of untreated control (UTC) | 60 percentage of untreated control (UTC) | 46 percentage of untreated control (UTC) | 33 percentage of untreated control (UTC) | 59 percentage of untreated control (UTC) | – | – | – | – | – | –
12 | 328103 (antisense e[5mC]*e[5mC]*e[5mC]*eA*eA*eT*eA*eT*e[5mC]*eA*eA*eA*e[5mC]*eA*eT*eA*eT*e[5mC]*eA) [compound 328103] | 113 percentage of untreated control (UTC) | 96 percentage of untreated control (UTC) | 87 percentage of untreated control (UTC) | 86 percentage of untreated control (UTC) | 83 percentage of untreated control (UTC) | 110.2 percentage of control | 83.2 percentage of control | 82.5 percentage of control | 94.3 percentage of control | 74.3 percentage of control | –
13 | 328090 (antisense eA*eT*eT*eA*eA*eA*eA*eA*eG*eT*e[5mC]*e[5mC]*eT*e[5mC]*eT*eT*eG*e[5mC]*e[5mC]*e[5mC]*eA) [compound 328090] | 128 percentage of untreated control (UTC) | 68 percentage of untreated control (UTC) | 81 percentage of untreated control (UTC) | 86 percentage of untreated control (UTC) | 95 percentage of untreated control (UTC) | – | – | – | – | – | –
